Laboratory results published in patent publication US6828139B2, “Production of replicative hepatitis C virus” (priority 2000, dated 2004).
Counter-ions that a name gives are not always drawn.

Tested on: HCV (−) RNA synthesis
Experiment: HCV (−) strand RNA synthesis in the inducible HCV replication system, RNase protection assay
Type: cell-based, hepatitis C virus (genotype 1a, strain H77) in CV-1 cells
Design: inhibitory effect on HCV (−) RNA synthesis: dose or concentration left out as unconfirmed
Conditions: for results on HCV (−) RNA synthesis with changed time of addition: drug given 0 and 12 hours before vTF7-3 infection, compared with 20 hours

Structure (SMILES) | activity against HCV (−) strand synthesis (amantadine 1-100 μg/well, added 20 hours prior to vTF7-3 infection) | results on HCV (−) RNA synthesis with changed time of addition | inhibitory effect on HCV (−) RNA synthesis (ribavirin, added 20 hours prior to vTF7-3)
NC12CC3CC(CC(C3)C1)C2 [amantadine, Amantadine-HCl] | no activity | unchanged | 
NC(=O)c1ncn([C@@H]2O[C@H](CO)[C@@H](O)[C@H]2O)n1 [ribavirin] |  | unchanged | No inhibitory effect
